This note sets out measurements from ChEMBL document CHEMBL1140031, “Cyclic voltammetric analysis of 2-styrylchromones: relationship with the antioxidant activity” (Bioorg Med Chem, 2008).

Molecules are shown by their SMILES.

The first assay is described as follows: Antioxidant activity assessed as singlet oxygen scavenging activity. The format is functional.
The IC30 is the concentration needed for an effect of 30%. On to `O=c1cc(/C=C/c2ccc(O)cc2)oc2cc(O)cc(O)c12`, for which the IC30 is 72300 nM.

With `O=c1cc(/C=C/c2ccc(O)c(O)c2)oc2cc(O)cc(O)c12`, the concentration for an effect of 30% (IC30) came out at 2300 nM.

As for `O=c1cc(/C=C/c2ccc(O)cc2)oc2ccccc12`, the IC30 was 105000 nM.

Turning to `O=c1cc(/C=C/c2ccc(O)c(O)c2)oc2ccccc12`, the concentration for an effect of 30% (IC30) was 2700 nM.

As to `O=c1cc(/C=C/c2ccccc2)oc2cc(O)cc(O)c12`, the IC30 is 81300 nM.

On to `O=c1cc(/C=C/c2ccc(O)cc2)oc2cc(O)ccc12`, for which the IC30 was 93400 nM.

For `O=c1cc(/C=C/c2ccc(O)cc2)oc2cccc(O)c12`, the concentration for an effect of 30% (IC30) amounted to 40000 nM.

As for `O=c1cc(/C=C/c2ccc(O)c(O)c2)oc2cc(O)ccc12`, the IC30 turned out to be 3700 nM.

`O=c1cc(/C=C/c2ccc(O)c(O)c2)oc2cccc(O)c12`: the IC30 came out at 1900 nM.

A further assay is described as follows: Antioxidant activity assessed as H2O2 scavenging activity at 125 uM. Format: functional.
With `O=c1cc(/C=C/c2ccc(O)cc2)oc2cc(O)cc(O)c12`, the Activity stood at 10.6%.

Take `O=c1cc(/C=C/c2ccc(O)c(O)c2)oc2cc(O)cc(O)c12`: the Activity came to 66.7%.

For the molecule `O=c1cc(/C=C/c2ccc(O)c(O)c2)oc2ccccc12`, the Activity came to 44.1%.

Take `O=c1cc(/C=C/c2ccc(O)cc2)oc2cccc(O)c12`: the Activity was 16.9%.

As to `O=c1cc(/C=C/c2ccc(O)c(O)c2)oc2cc(O)ccc12`, the Activity amounted to 50.8%.

Turning to `O=c1cc(/C=C/c2ccc(O)c(O)c2)oc2cccc(O)c12`, the Activity was determined as 50.8%.

A further assay in a line: Antioxidant activity assessed as hypochlorous acid scavenging activity. The format is functional.
A word on the IC50: it is the concentration needed to halve the response being measured. Regarding `O=c1cc(/C=C/c2ccc(O)cc2)oc2cc(O)cc(O)c12`, the IC50 is 8500 nM.

With `O=c1cc(/C=C/c2ccc(O)c(O)c2)oc2cc(O)cc(O)c12`, the concentration for half-maximal inhibition (IC50) amounted to 3900 nM.

Consider `O=c1cc(/C=C/c2ccc(O)c(O)c2)oc2ccccc12`, for which the IC50 is 31200 nM.

For `O=c1cc(/C=C/c2ccccc2)oc2cc(O)ccc12`, the IC50 is 72300 nM.

For `O=c1cc(/C=C/c2ccccc2)oc2cc(O)cc(O)c12`, the IC50 turned out to be 5700 nM.

For the molecule `O=c1cc(/C=C/c2ccc(O)cc2)oc2cc(O)ccc12`, the IC50 was 92000 nM.

Consider `O=c1cc(/C=C/c2ccc(O)c(O)c2)oc2cc(O)ccc12`, for which the IC50 is 18000 nM.

Turning to `O=c1cc(/C=C/c2ccc(O)c(O)c2)oc2cccc(O)c12`, the IC50 is 16900 nM.

The nature of another assay: Antioxidant activity assessed as superoxide radical scavenging activity. Format: functional.
As to `O=c1cc(/C=C/c2ccc(O)c(O)c2)oc2cc(O)cc(O)c12`, the IC27 was determined as 28.8 µM.

`O=c1cc(/C=C/c2ccc(O)cc2)oc2ccccc12`: the IC27 is 56 µM.

Regarding `O=c1cc(/C=C/c2ccc(O)c(O)c2)oc2ccccc12`, the IC27 stood at 42.4 µM.

With `O=c1cc(/C=C/c2ccccc2)oc2cc(O)ccc12`, the IC27 is 55.9 µM.

Regarding `O=c1cc(/C=C/c2ccccc2)oc2cc(O)cc(O)c12`, the IC27 amounted to 125 µM.

As to `O=c1cc(/C=C/c2ccc(O)cc2)oc2cc(O)ccc12`, the IC27 turned out to be 17.7 µM.

As for `O=c1cc(/C=C/c2ccc(O)c(O)c2)oc2cc(O)ccc12`, the IC27 came out at 18.9 µM.

In the case of `O=c1cc(/C=C/c2ccc(O)c(O)c2)oc2cccc(O)c12`, the IC27 is 46.6 µM.

The nature of the next assay: Antioxidant activity assessed as peroxynitrite radical scavenging activity in absence of NaHCO3. The format is functional.
For the molecule `O=c1cc(/C=C/c2ccc(O)cc2)oc2cc(O)cc(O)c12`, the half-maximal inhibitory concentration (IC50) was determined as 1250 nM.

As for `O=c1cc(/C=C/c2ccc(O)c(O)c2)oc2cc(O)cc(O)c12`, the IC50 came to 260 nM.

For the molecule `O=c1cc(/C=C/c2ccc(O)cc2)oc2ccccc12`, the IC50 stood at 1200 nM.

Take `O=c1cc(/C=C/c2ccc(O)c(O)c2)oc2ccccc12`: the IC50 came to 240 nM.

For the molecule `O=c1cc(/C=C/c2ccccc2)oc2cc(O)cc(O)c12`, the IC50 is 46600 nM.

Consider `O=c1cc(/C=C/c2ccc(O)cc2)oc2cc(O)ccc12`, for which the IC50 is 1400 nM.

Consider `O=c1cc(/C=C/c2ccc(O)cc2)oc2cccc(O)c12`, for which the half-inhibitory concentration (IC50) is 1040 nM.

Consider `O=c1cc(/C=C/c2ccc(O)c(O)c2)oc2cc(O)ccc12`, for which the IC50 was 300 nM.

As for `O=c1cc(/C=C/c2ccc(O)c(O)c2)oc2cccc(O)c12`, the IC50 turned out to be 260 nM.

A short description of the next assay: Antioxidant activity assessed as peroxynitrite radical scavenging activity in presence of NaHCO3. The format is functional.
Turning to `O=c1cc(/C=C/c2ccc(O)cc2)oc2cc(O)cc(O)c12`, the IC50 was found to be 1210 nM.

`O=c1cc(/C=C/c2ccc(O)c(O)c2)oc2cc(O)cc(O)c12`: the IC50 was 630 nM.

Turning to `O=c1cc(/C=C/c2ccc(O)cc2)oc2ccccc12`, the IC50 was determined as 1230 nM.

As to `O=c1cc(/C=C/c2ccc(O)c(O)c2)oc2ccccc12`, the IC50 turned out to be 440 nM.

As for `O=c1cc(/C=C/c2ccccc2)oc2cc(O)cc(O)c12`, the IC50 stood at 40600 nM.

For `O=c1cc(/C=C/c2ccc(O)cc2)oc2cc(O)ccc12`, the IC50 was determined as 1650 nM.

Consider `O=c1cc(/C=C/c2ccc(O)cc2)oc2cccc(O)c12`, for which the IC50 amounted to 980 nM.

Regarding `O=c1cc(/C=C/c2ccc(O)c(O)c2)oc2cc(O)ccc12`, the IC50 amounted to 610 nM.

Consider `O=c1cc(/C=C/c2ccc(O)c(O)c2)oc2cccc(O)c12`, for which the IC50 came out at 510 nM.
